Measurements taken from article PMC12292992, “Betulinic Acid ω-Triphenylphosphonium Alkyl Esters: Antiproliferative Activities and In Silico Pharmacokinetic Profiles” (Biomedicines, 2025).

What was measured:
AU565 cells = assay: MTT cell viability assay, mammary carcinoma; assay type: cell-based, human; details: Homo sapiens
Procedure: (§1) Human cell lines were obtained from the American Type Culture Collection (ATCC, Manassas, VA, USA). Normal lung MRC-5 fibroblasts (ATCC® CCL-171™), SK-MES-1 lung cancer cells (ATCC® HTB-58™), and J82 bladder carcinoma cells (ATCC® HTB-1™) were grown as monolayers in Eagle’s minimum essential medium (MEM) with Earle’s salts, 2 mM L-glutamine, and 1.5 g/L sodium bicarbonate. Gastric epithelial AGS cells (ATCC® CRL-1739™) were grown as monolayers in Ham’s F-12 medium containing 1 mM L-glutamine and 1.5 g/L sodium bicarbonate. Promyelocytic leukemia HL-60 (ATCC® CCL-240™), colorectal adenocarcinoma HCT-15 (ATCC® CCL-225™), metastatic colorectal COLO205 (ATCC® CCL-222™), and breast cancer AU565 (ATCC® CRL-2351™, ER^−-HER2/neu^+) cells were grown in suspension in an RPMI-1640 medium containing 1 mM sodium pyruvate and 2.0 g/L sodium bicarbonate. Human breast cancer MCF-7 (ATCC® HTB-22™, ER^+-HER2/neu^−) and MDA-MB-231 (ATCC® HTB-26™, ER^−-HER2/neu^−) cells were grown as monolayers in DMEM medium. All media were supplemented with 10% heat-inactivated fetal bovine serum (HI-FBS), 100 IU/mL penicillin G, and 100 µg/mL streptomycin. Cells were maintained at 37 °C in a humidified incubator with 5% CO2.
(§2) MRC-5, SK-MES-1, J82, and AGS cells were seeded at a density of 5 × 10^4 cells/mL in 96-well plates. COLO205, HCT-15, MCF-7, MDA-MB-231, and AU565 cells were seeded at 1 × 10^5 cells/mL, while HL-60 cells were plated at 3 × 10^5 cells/mL. A volume of 100 µL of the cell suspension was added to each well. After 24 h, the compounds were added in increasing concentrations (ranging from 0 to 100 µM), and cells were incubated for 24, 48, or 72 h. The compounds were dissolved in DMSO and diluted in complete medium to a final concentration of 0.5% DMSO. Cells treated with 0.5% DMSO in complete medium were used as viability controls (100%). Etoposide (98% purity, Sigma-Aldrich, St. Louis, MO, USA) was used as the reference compound. Each concentration was tested in quadruplicate, and each experiment was performed twice using independent cell preparations. At the end of the incubation period, cell viability was determined using the MTT reduction assay. The results were transformed into percentages relative to controls, and IC50 values were obtained graphically from the dose–response curves. Results are presented as IC50 values ± standard deviation (SD).

J82 cells = assay: MTT cell viability assay, bladder carcinoma; assay type: cell-based; details: Homo sapiens, J82, 72 h
Procedure: as §1, §2

AGS cells = assay: MTT cell viability assay, gastric adenocarcinoma; assay type: cell-based; details: Homo sapiens, 72 h
Procedure: as §1, §2

COLO205 cells = assay: MTT cell viability assay, metastatic colorectal cancer; assay type: cell-based, human; details: Homo sapiens, COLO 205
Procedure: as §1, §2

HL-60 cells = assay: MTT cell viability assay, leukemia; assay type: cell-based; details: Homo sapiens, HL-60, 72 h
Procedure: as §1, §2

[1] = tested on: MRC-5 normal human lung fibroblasts; assay: MTT cell viability assay, normal lung fibroblasts; assay type: cell-based; details: MRC5, MRC-5, 72 h
Procedure: as §1, §2

SK-MES-1 cells = assay: MTT cell viability assay, lung cancer; assay type: cell-based; details: Homo sapiens, SK-MES-1, 72 h
Procedure: as §1, §2

HCT-15 cells = assay: MTT cell viability assay, colorectal carcinoma; assay type: cell-based, human; details: Homo sapiens
Procedure: as §1, §2

MDA-MB-231 cells = assay: MTT cell viability assay, mammary carcinoma; assay type: cell-based; details: Homo sapiens
Procedure: as §1, §2

MCF-7 cells [2] = assay: MTT cell viability assay, mammary carcinoma; assay type: cell-based; details: Homo sapiens, MCF7
Procedure: as §1, §2

human cancer cell lines = assay: MTT cell viability, summary over the human cancer cell lines; assay type: cell-based; details: nine human cancer cell lines, relative to BA, summary statement
Procedure: as §1, §2

MCF-7 cells [3] = assay: Oxygen consumption assay (Clark-type electrode); assay type: cell-based, human; details: MCF-7, 10 and 20 µM
Procedure: Oxygen consumption of the tumor cells was measured polarographically using a Clark-type electrode (Yellow Springs Instruments, Dayton, OH, USA) placed horizontally in a cell of 0.6 mL volume at 25 °C, coupled to a YSI monitor (model 53). The electrode signal was recorded in a computer connected to a DI-148U module with a USB interface. Data were acquired using the Windaq Acquisition Waveform Recorder software v3.36 (DataQ Instruments, Akron, OH, USA). The test medium used contained 150 mM NaCl, 5 mM KCl, and 1 mM Tris-HCl, and pH 7.4. 5 mM glutamine was added with the cells and test compounds. Oxygen consumption was recorded when the cell aliquots (6 × 10^6 cells) were added. Oligomycin (1.5 μg/mL) was added as an inhibitor of the Fo subunit of ATP synthase prior to the incorporation of the compounds under study. FCCP (carbonyl cyanide-p-trifluoromethoxyphenylhydrazone, 50 nM) was used prior to the addition of test compounds as an internal control to calibrate the electrode system and confirm the maximum uncoupling capacity of the cells.

[4] = parameters: method as in PMID 17576843, PMID 17638699; details: oral administration, healthy individuals and patients with HIV, cited from earlier work

| SMILES | IC50 (AU565 cells; AU565, 24 h) [nM] | IC50 (AU565 cells; AU565, 48 h) [nM] | IC50 (J82 cells) [nM] | IC50 (AGS cells) [nM] | IC50 (COLO205 cells; COLO205, 24 h) [nM] | IC50 (COLO205 cells; COLO205, 48 h) [nM] | IC50 (COLO205 cells; COLO205, 72 h) [nM] | IC50 (HL-60 cells) [nM] | IC50 [1] [nM] | IC50 (SK-MES-1 cells) [nM] | IC50 (HCT-15 cells; HCT-15, 24 h) [nM] | IC50 (HCT-15 cells; HCT-15, 48 h) [nM] | IC50 (HCT-15 cells; HCT-15, 72 h) [nM] | IC50 (MDA-MB-231 cells; MDA-MB-231, 24 h) [nM] | IC50 (MDA-MB-231 cells; MDA-MB-231, 48 h) [nM] | IC50 (MCF-7 cells [2]; MCF-7, 24 h) [nM] | IC50 (MCF-7 cells [2]; MCF-7, 48 h) [nM] | increase in potency (human cancer cell lines) | mitochondrial uncoupling effect (MCF-7 cells [3]) | other results |
| --- | --- | --- | --- | --- | --- | --- | --- | --- | --- | --- | --- | --- | --- | --- | --- | --- | --- | --- | --- | --- |
| C=C(C)[C@@H]1CC[C@]2(C(=O)O)CC[C@]3(C)[C@H](CC[C@@H]4[C@@]5(C)CC[C@H](O)C(C)(C)[C@@H]5CC[C@]43C)[C@@H]12 [BA, 3β-hydroxy-lup-20(29)-en-28-oic acid, reference compound] | 33090 ± 170 | 9290 ± 980 | 32800 ± 1700 | 14100 ± 500 | 97700 ± 1020 | 74600 ± 2870 | 34300 ± 2580 | 21900 ± 1500 | 56700 ± 4300 | 44800 ± 2700 | 43800 ± 3640 | 9470 ± 3100 | 3890 ± 1300 | – | – | – | – | – | – | – |
| C=C(C)[C@@H]1CC[C@]2(C(=O)OCCCCC[P+](c3ccccc3)(c3ccccc3)c3ccccc3)CC[C@]3(C)C(CCC4[C@@]5(C)CC[C@H](O)C(C)(C)C5CC[C@]43C)C12 (stereo partly drawn) [BA-C5-TPP^+Br^−, 5-Triphenylphosphoniopentyl 3β-hydroxylup-20(29)-en-28-oate bromide] | 5910 ± 80 | 1020 ± 180 | 1220 ± 10 | 770 ± 80 | 4320 ± 2400 | 1620 ± 1150 | 1610 ± 20 | 630 ± 50 | 830 ± 20 | 470 ± 40 | 5170 ± 1320 | 1930 ± 360 | 1930 ± 320 | 5500 ± 600 | 2530 ± 650 | 8680 ± 1270 | 1770 ± 400 | over 100 fold | concentration-dependent uncoupling effect, though less pronounced than that of BA-C4-TPP^+Br^− | – |
| C=C(C)[C@@H]1CC[C@]2(C(=O)OCCCCCC[P+](c3ccccc3)(c3ccccc3)c3ccccc3)CC[C@]3(C)C(CCC4[C@@]5(C)CC[C@H](O)C(C)(C)C5CC[C@]43C)C12 (stereo partly drawn) [BA-C6-TPP^+Br^−, 6-Triphenylphosphoniohexyl 3β-hydroxylup-20(29)-en-28-oate bromide] | 6370 ± 310 | 1330 ± 120 | 1710 ± 50 | 1270 ± 20 | 4870 ± 1430 | 840 ± 390 | 970 ± 290 | 910 ± 10 | 1350 ± 100 | 680 ± 10 | 9040 ± 2800 | 2890 ± 240 | 2400 ± 130 | 7280 ± 530 | 2660 ± 80 | 7690 ± 1320 | 4620 ± 530 | over 100 fold | not seen at the tested concentrations | – |
| C=C(C)[C@@H]1CC[C@]2(C(=O)O)CC[C@]3(C)[C@H](CC[C@@H]4[C@@]5(C)CC[C@H](OC(=O)CC(C)(C)C(=O)O)C(C)(C)[C@@H]5CC[C@]43C)[C@@H]12 [Compound 4, 3-O-(3′,3′-Dimethylsuccinyl)-BA] | – | – | – | – | – | – | – | – | – | – | – | – | – | – | – | – | – | – | – | tolerance ([4]; all studied doses): good tolerance at all studied doses; half-life [4]: long half-life; oral absorption [4]: rapid oral absorption |
| COc1cc([C@@H]2c3cc4c(cc3[C@@H](O[C@@H]3O[C@@H]5CO[C@@H](C)O[C@H]5[C@H](O)[C@H]3O)[C@H]3COC(=O)[C@H]23)OCO4)cc(OC)c1O [Etoposide, reference compound] | – | – | 2850 ± 20 | 460 ± 40 | – | – | – | 820 ± 10 | 3960 ± 210 | 2610 ± 10 | – | – | – | – | – | – | – | – | – | – |
